Reference: ChEMBL document CHEMBL5303573, “Mapping human microbiome drug metabolism by gut bacteria and their genes” (Nature, 2019)

Tests used:
[1] = The drug is tested on Odoribacter splanchnicus strain: fecal isolate for biotransformation. The drug concentrations were measured before and after a 12-h incubation by liquid-chromatography-coupled mass spectrometry (LC–MS); details: 2 µM
[2] = bacteroides fragilis, 12 h, 2 µM
Description: The drug is tested on Bacteroides fragilis strain: NCTC 9343 for biotransformation. The drug concentrations were measured before and after a 12-h incubation by liquid-chromatography-coupled mass spectrometry (LC–MS)

[3] = The drug is tested on Alistipes indistinctus strain: DSM22520 for biotransformation. The drug concentrations were measured before and after a 12-h incubation by liquid-chromatography-coupled mass spectrometry (LC–MS); details: 2 µM
[4] = The drug is tested on Ruminococcus lactaris strain: ATCC29176 for biotransformation. The drug concentrations were measured before and after a 12-h incubation by liquid-chromatography-coupled mass spectrometry (LC–MS); details: 2 µM
[5] = The drug is tested on Eubacterium ventriosum strain: ATCC27560 for biotransformation. The drug concentrations were measured before and after a 12-h incubation by liquid-chromatography-coupled mass spectrometry (LC–MS); type: ADME; parameters: dose 2 uM, timepoint 0 vs 12 hours; details: 2 µM
[6] = The drug is tested on Bacteroides sp. WH2 strain: WH2 for biotransformation. The drug concentrations were measured before and after a 12-h incubation by liquid-chromatography-coupled mass spectrometry (LC–MS); details: bacteroides sp. wh2, 12 h, 2 µM
[7] = akkermansia muciniphila, 12 h, 2 µM
Description: The drug is tested on Akkermansia muciniphila strain: ATCC BAA-835 for biotransformation. The drug concentrations were measured before and after a 12-h incubation by liquid-chromatography-coupled mass spectrometry (LC–MS)

[8] = molecular target: T1, Nitroreductase domain-containing protein (Phocaeicola dorei, UniProt B6VU18); test: (§1) The drug is tested on Bacteroides dorei strain: DSM17855 for biotransformation. The drug concentrations were measured before and after a 12-h incubation by liquid-chromatography-coupled mass spectrometry (LC–MS); type: ADME; parameters: dose 2 uM; details: 2 µM
T1 sequence (B6VU18 whole entry): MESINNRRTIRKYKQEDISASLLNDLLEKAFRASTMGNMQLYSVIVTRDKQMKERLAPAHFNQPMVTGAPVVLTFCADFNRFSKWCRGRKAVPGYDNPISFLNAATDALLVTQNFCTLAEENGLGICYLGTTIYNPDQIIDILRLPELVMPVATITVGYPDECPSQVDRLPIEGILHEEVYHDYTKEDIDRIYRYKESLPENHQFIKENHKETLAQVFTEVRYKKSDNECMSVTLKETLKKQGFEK

[9] = molecular target: T2, SGNH hydrolase-type esterase domain-containing protein (Phocaeicola dorei, UniProt B6W293); test: as §1; type: ADME; parameters: dose 2 uM; details: 2 µM
T2 sequence (B6W293 whole entry): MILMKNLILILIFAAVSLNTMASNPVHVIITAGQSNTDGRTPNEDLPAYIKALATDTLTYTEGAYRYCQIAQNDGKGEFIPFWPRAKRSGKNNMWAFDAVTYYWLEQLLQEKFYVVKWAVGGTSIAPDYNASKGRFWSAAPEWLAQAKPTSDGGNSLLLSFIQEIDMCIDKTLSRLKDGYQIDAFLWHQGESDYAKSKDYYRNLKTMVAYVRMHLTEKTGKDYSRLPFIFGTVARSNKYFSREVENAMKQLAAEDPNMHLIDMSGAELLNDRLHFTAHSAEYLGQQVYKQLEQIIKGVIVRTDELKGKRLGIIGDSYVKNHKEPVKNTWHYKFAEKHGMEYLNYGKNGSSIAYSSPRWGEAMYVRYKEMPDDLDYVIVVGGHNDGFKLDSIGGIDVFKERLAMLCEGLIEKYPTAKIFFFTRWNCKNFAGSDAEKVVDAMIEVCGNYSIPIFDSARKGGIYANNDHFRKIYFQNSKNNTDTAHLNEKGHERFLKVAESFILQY

[10] = molecular target: T3, SGNH hydrolase-type esterase domain-containing protein (Phocaeicola dorei, UniProt B6W1J1); test: as §1; type: ADME; parameters: dose 2 uM; details: 2 µM
T3 sequence (B6W1J1 whole entry): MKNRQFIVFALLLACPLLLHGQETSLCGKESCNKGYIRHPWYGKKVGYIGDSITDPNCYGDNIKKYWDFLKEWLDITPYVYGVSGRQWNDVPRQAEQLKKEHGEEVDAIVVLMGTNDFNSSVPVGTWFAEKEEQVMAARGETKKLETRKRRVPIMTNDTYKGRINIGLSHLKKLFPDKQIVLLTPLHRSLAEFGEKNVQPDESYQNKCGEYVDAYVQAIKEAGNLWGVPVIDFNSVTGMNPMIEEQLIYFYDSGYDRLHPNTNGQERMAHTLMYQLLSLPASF

[11] = molecular target: T4, Acyltransferase 3 domain-containing protein (Phocaeicola dorei, UniProt B6W2J3); test: as §1; type: ADME; parameters: dose 2 uM; details: 2 µM
T4 sequence (B6W2J3 whole entry): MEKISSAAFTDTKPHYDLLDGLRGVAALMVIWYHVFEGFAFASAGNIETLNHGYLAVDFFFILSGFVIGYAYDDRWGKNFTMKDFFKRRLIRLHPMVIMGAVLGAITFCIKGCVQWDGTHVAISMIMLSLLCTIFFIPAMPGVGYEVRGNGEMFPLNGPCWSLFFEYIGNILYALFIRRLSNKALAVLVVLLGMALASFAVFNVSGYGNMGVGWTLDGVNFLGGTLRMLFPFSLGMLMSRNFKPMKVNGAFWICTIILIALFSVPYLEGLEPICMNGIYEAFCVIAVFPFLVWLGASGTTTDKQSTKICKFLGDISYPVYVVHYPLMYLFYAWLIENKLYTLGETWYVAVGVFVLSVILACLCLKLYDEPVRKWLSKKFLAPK

Esterase = molecular target: T5, Esterase (Phocaeicola dorei, UniProt B6W2J6); test: as §1; type: ADME; parameters: dose 2 uM; details: 2 µM
T5 sequence (B6W2J6 whole entry): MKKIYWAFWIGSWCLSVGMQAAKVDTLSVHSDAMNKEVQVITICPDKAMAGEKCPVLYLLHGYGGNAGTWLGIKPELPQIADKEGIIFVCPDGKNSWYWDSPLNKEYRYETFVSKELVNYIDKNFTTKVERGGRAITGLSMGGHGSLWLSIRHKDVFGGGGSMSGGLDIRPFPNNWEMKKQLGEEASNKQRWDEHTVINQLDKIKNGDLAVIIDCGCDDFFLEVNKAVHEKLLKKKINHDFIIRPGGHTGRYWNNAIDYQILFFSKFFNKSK

[12] = molecular target: T6, Nitroreductase domain-containing protein (Phocaeicola dorei, UniProt B6W3P3); test: as §1; type: ADME; parameters: dose 2 uM; details: 2 µM
T6 sequence (B6W3P3 whole entry): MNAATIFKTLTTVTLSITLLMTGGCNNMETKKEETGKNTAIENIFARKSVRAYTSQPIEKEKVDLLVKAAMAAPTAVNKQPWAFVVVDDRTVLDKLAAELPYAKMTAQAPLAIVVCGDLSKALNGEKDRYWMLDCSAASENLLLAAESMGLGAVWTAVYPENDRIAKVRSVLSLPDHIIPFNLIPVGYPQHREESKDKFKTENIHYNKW

[13] = molecular target: T7, SGNH hydrolase-type esterase domain-containing protein (Phocaeicola dorei, UniProt B6VTE7); test: as §1; type: ADME; parameters: dose 2 uM; details: 2 µM
T7 sequence (B6VTE7 whole entry): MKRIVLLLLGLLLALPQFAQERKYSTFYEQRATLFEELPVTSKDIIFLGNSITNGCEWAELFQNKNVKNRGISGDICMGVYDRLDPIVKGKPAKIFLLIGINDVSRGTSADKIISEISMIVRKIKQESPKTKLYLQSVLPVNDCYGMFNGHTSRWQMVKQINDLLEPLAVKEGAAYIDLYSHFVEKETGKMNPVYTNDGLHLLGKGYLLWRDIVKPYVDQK

| Bacterial Biotransformation [1] | Bacterial Biotransformation [2] | Bacterial Biotransformation [3] | Bacterial Biotransformation [4] | Bacterial Biotransformation [5] | Bacterial Biotransformation [6] | Bacterial Biotransformation [7] | Bacterial Biotransformation [8] | Bacterial Biotransformation [9] | Bacterial Biotransformation [10] | Bacterial Biotransformation [11] | Bacterial Biotransformation (Esterase) | Bacterial Biotransformation [12] | Bacterial Biotransformation [13] | Compound |
| --- | --- | --- | --- | --- | --- | --- | --- | --- | --- | --- | --- | --- | --- | --- |
| Compound metabolized | Compound metabolized | Compound metabolized | Compound metabolized | Compound metabolized | Compound metabolized | Compound metabolized | Compound NOT metabolized | Compound NOT metabolized | Compound NOT metabolized | Compound NOT metabolized | Compound NOT metabolized | Compound NOT metabolized | Compound NOT metabolized | CCN(CC)C(=O)/C(C#N)=C/c1cc(O)c(O)c([N+](=O)[O-])c1 [ENTACAPONE] |
| Compound metabolized | Compound metabolized | Compound metabolized | Compound metabolized | Compound metabolized | Compound metabolized | Compound metabolized | Compound metabolized | Compound NOT metabolized | Compound NOT metabolized | Compound NOT metabolized | Compound NOT metabolized | Compound metabolized | Compound NOT metabolized | CCS(=O)(=O)CCn1c([N+](=O)[O-])cnc1C [TINIDAZOLE] |
| Compound metabolized | Compound metabolized | Compound metabolized | Compound metabolized | Compound metabolized | Compound metabolized | Compound metabolized | Compound NOT metabolized | Compound NOT metabolized | Compound NOT metabolized | Compound NOT metabolized | Compound NOT metabolized | Compound NOT metabolized | Compound NOT metabolized | C#C[C@]1(O)CC[C@H]2[C@@H]3CCC4=Cc5oncc5C[C@]4(C)[C@H]3CC[C@@]21C [DANAZOL] |
| Compound metabolized | Compound metabolized | Compound metabolized | Compound metabolized | Compound metabolized | Compound metabolized | Compound NOT metabolized | Compound NOT metabolized | Compound NOT metabolized | Compound NOT metabolized | Compound NOT metabolized | Compound NOT metabolized | Compound NOT metabolized | Compound NOT metabolized | CC(=O)OCC(=O)NCCCOc1cccc(CN2CCCCC2)c1 [ROXATIDINE ACETATE] |
| Compound metabolized | Compound metabolized | Compound metabolized | Compound metabolized | Compound metabolized | Compound metabolized | Compound metabolized | Compound NOT metabolized | Compound NOT metabolized | Compound NOT metabolized | Compound NOT metabolized | Compound NOT metabolized | Compound NOT metabolized | Compound NOT metabolized | CC(=O)SCC(Cc1ccccc1)C(=O)NCC(=O)OCc1ccccc1 (stereo not given) [RACECADOTRIL] |
